The source of these data is patent publication US6600063B1, “Derivatives of phenyl 4-aminosalicylate and method of making the same” (priority 2000, dated 2003).

Molecules are shown by their SMILES. Converted amounts (≈) assume the structure as drawn. Some results are limits rather than exact numbers.

Test [1] relates to Mycobacterium tuberculosis H37Rv (ATCC 27294). The test can be described thus: Microplate Alamar Blue Assay (MABA), primary screen and MIC against M. tuberculosis H37Rv. Format: cell-based. Further details: MIC H37Rv: unit not given beside the values. As to conditions: for MIC: Mycobacterium tuberculosis, M. tuberculosis H37Rv; for MIC / % Inhibition: ASSAY ALAMAR; for % Inhibition: primary screen at 12.5 or 6.25 ug/ml. In general terms: The colour change of resazurin is a common sign of viable cells or microbes.

For test [2] the test system is unchanged. Kind of test: BACTEC 460 radiometric system, primary screen and MIC against M. tuberculosis H37Rv. In kind it is cell-based. The following applies: for MIC: Mycobacterium tuberculosis; for % Inhibition: primary screen at 12.5 or 6.25 ug/ml.
Test [3] has as its system M. tuberculosis Erdman (ATCC 35801) in mouse bone marrow macrophages. Kind of test: Killing of M. tuberculosis Erdman in monolayers of mouse bone marrow macrophages (EC90, EC99). In kind it is cell-based, Mycobacterium tuberculosis.
The test system of another test is M. tuberculosis Erdman. Kind of test: MIC in the MABA against drug-sensitive strain Erdman. Format: cell-based. The following applies: Mycobacterium tuberculosis, read-out: MIC ERDMA (ug/ml).
The test system of another test is M.tuberculosis (H37Rv). As to conditions: compared with 4-aminosalicylic acid; cited from earlier work.
Setting [4] is: primary screen, BACTEC, M. tuberculosis H37Rv, read-out: MIC.

`O=C(Oc1ccccc1)c1ccc(NC(=S)Nc2ccccc2)cc1O` [SAMPLE ID 131326]: the “MIC H37Rv” value in test [1] (Table 9 strain panel, drug-sensitive strain H37Rv) is recorded as 1.56. In addition, the MIC is 0.2 µg/mL (≈ 0.549 µM) in test [2] (Table 4, assay not given, read-out: MIC); 0.2 µg/mL (≈ 0.549 µM) in test [2] (actual MIC, ASSAY BACTEC, M. tuberculosis H37Rv, read-out: MIC); < 12.5 µg/mL in test [2] (setting [4]); 0.2 µg/mL (≈ 0.549 µM) in the test on M. tuberculosis Erdman. For the same compound, the “% Inhibition” value in test [2] (BACTEC, M. tuberculosis H37Rv) was found to be 100%. The compound further returned an EC99 in test [3] (99% reduction in colony forming units at 7 days, bactericidal activity) of 0.92 µg/mL. Moreover, the EC90 in test [3] (Mycobacterium tuberculosis, Bone marrow macrophage, 168 h, 90% reduction in colony forming units at 7 days, bacteriostatic activity) amounted to 0.203 µg/mL (≈ 0.557 µM).
For the compound `O=C(Oc1ccccc1)c1ccc(/N=C/c2ccc([N+](=O)[O-])cc2)cc1O` [SAMPLE ID 133652], the MIC in test [2] (actual MIC, ASSAY BACTEC, M. tuberculosis H37Rv) was 0.1 µg/mL (≈ 0.276 µM); in test [2] (primary screen, BACTEC, M. tuberculosis H37Rv) it was < 12.5 µg/mL. Besides, the “% Inhibition” value in test [2] (BACTEC, M. tuberculosis H37Rv) is listed as 97%.
On to `CO[C@H]1/C=C/O[C@@]2(C)Oc3c(C)c(O)c4c(O)c(c(/C=N/N5CCN(C)CC5)c(O)c4c3C2=O)NC(=O)/C(C)=C\C=C\[C@H](C)[C@H](O)[C@@H](C)[C@@H](O)[C@@H](C)[C@H](OC(C)=O)[C@@H]1C` [RMP, rifampin, reference compound], for which, in test [2] (reference drug in the COMMENT column of the primary screen, read-out: MIC of RMP vs. M. tuberculosis), the MIC was found to be 0.25 µg/mL.
As to `O=Cc1ccc(/C=N/c2ccc(C(=O)Oc3ccccc3)c(O)c2)cc1` [SAMPLE ID 130069], the MIC in test [2] (setting [4]) is < 12.5 µg/mL. For the same compound, the “% Inhibition” value in test [2] (BACTEC, M. tuberculosis H37Rv) is on record as 99%.
`O=C(Oc1ccccc1)c1ccc(/C=N/c2ccccc2[N+](=O)[O-])cc1O` [SAMPLE ID 139235]: in test [1], the MIC is 0.025 µg/mL (≈ 0.069 µM) and the “% Inhibition” value is recorded as 97%.
With `CCC(=O)Nc1ccc(C(=O)Oc2ccccc2)c(OC(=O)CC)c1` [SAMPLE ID 138392], in test [1], the MIC amounted to 0.39 µg/mL (≈ 1.14 µM) and the “% Inhibition” value is reported as 94%.
As to `Nc1ccc(C(=O)Oc2ccccc2)c(O)c1` [phenyl 4-aminosalicylate], the “destruction of the virulent strain of M.tuberculosis (H37Rv)” value in the test on M.tuberculosis (H37Rv) is “even better than 4-aminosalicylic acid”.

As usually defined, the % Inhibition is the share of the control response that was lost under treatment. For orientation: EC99 means the concentration at which the effect reaches the 99% level. By EC90 is commonly meant the concentration at which the effect reaches the 90% level.
